One may read the ED50 as the midpoint of the dose-response relation.

In the assay the test system is Escherichia coli, Proteus spp. und anderen. Briefly: Systemic gram-negative infection in the mouse, oral administration. More on the design: species or system Maus. The settings on record: in vivo, oral administration to the mouse, systemic gram-negative infections, range across pathogens. An excerpt: Die Verbindungen der Formel I, worin Am eine freie Aminogruppe ist und ihre pharmazeutisch verwendbaren, nichttoxischen Salze sind wertvolle, antibiotisch wirksame Substanzen, die insbesondere als antibakterielle Antibiotika verwendet werden können.

`CCOC(=O)OC(C)OC(=O)C1=CCS[C@@H]2[C@H](NC(=O)/C(=N\OC)c3csc(N)n3)C(=O)N12` (stereo partly shown) [7ß-[2-(2-Amino-4-thiazolyl)-2-methoxyiminoacetamido]-3-cephem-4-carbonsäure-1-äthoxycarbonyloxyäthylester] displayed a 50% effective dose (ED50) of 0.3 to 150 mg/kg.

The values are drawn from patent EP0054512A2, “Cephalosporin esters, process for their preparation and pharmaceutical compositions containing them” (CIBA-GEIGY AG, priority 1980, dated 1982).
